Results taken from BindingDB's records for doi:10.1016/j.bmcl.2005.10.026 (Pfizer, 2005).
pIC50: −log10 of the molar value.

Tests used:
[1] = Inhibition of PAF mediated human eosinophil chemotaxis
[2] = Inhibition of C5a mediated human eosinophil chemotaxis
[3] = Inhibition of Eotaxin mediated by human eosinophil chemotaxis
[4] = Inhibition of PDE4D

In the case of C[C@@H](NC(=O)c1cccnc1Oc1ccc(F)cc1)c1cccs1 [(R)-2-(4-fluorophenoxy)-N-(1-(thiophen-2-yl)ethyl)nicotinamide], the pIC50 [1] was 9.00, the pIC50 [2] was 9.00 and the pIC50 [3] was 8.52. For the same molecule, the pIC50 [4] was over 9.00.
